Molecular target: Dual specificity calcium/calmodulin-dependent 3',5'-cyclic nucleotide phosphodiesterase 1B (Homo sapiens, UniProt Q01064)
Assay: Ca2+-Calmodulin Dependent PDE Enzyme Assays
Experimental: PDE1B, PDE1A, and PDE1C are cloned and purified following standard protein generation procedures. The assay buffer is prepared to give a final concentration in the assay of 50 mM Tris-HCl, 50 mM MgCl2, 4 mM CaCl2, 0.1% Bovine serum albumin and 6 U/ml Calmodulin in water, at pH 7.5.

Dual specificity calcium/calmodulin-dependent 3',5'-cyclic nucleotide phosphodiesterase 1B, sequence (Q01064 whole entry): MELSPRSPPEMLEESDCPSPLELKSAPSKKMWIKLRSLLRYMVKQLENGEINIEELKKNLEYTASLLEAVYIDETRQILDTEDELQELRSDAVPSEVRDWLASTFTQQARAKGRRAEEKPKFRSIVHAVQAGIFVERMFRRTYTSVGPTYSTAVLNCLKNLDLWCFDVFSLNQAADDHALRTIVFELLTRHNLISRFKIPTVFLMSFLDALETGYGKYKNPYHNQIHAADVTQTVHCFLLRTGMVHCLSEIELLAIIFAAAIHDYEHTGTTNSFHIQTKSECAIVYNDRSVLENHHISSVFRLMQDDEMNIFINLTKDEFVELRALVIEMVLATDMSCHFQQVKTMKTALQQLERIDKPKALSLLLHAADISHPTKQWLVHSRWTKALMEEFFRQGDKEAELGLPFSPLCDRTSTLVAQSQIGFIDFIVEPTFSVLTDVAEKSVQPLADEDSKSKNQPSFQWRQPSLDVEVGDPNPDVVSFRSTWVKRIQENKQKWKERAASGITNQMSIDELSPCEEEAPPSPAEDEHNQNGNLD

Structure (SMILES) | IC50
CCCCn1c(=O)c2nnc(C3(C4CC4)CC3)n2c2ncc(CO)cc21 [US11180503, Example 11] | 928 pM
CCCCn1c(=O)c2nnc(C3(C4CC4)CC3)n2c2ncc(CC)cc21 [US11180503, Example 9] | 419 pM

Source: BindingDB's records for patent US11180503 (ELI LILLY AND COMPANY, 2021)
